We go through 15 compounds from patent publication US9073855B2, “BCL-2 selective apoptosis-inducing agents for the treatment of cancer and immune diseases” (AbbVie Inc., priority 2008, dated 2015).

The target of one test is GST-Bcl-2 (Homo sapiens, UniProt P10415). As to the kind of experiment: TR-FRET binding assay, GST-Bcl-2 with F-Bak peptide probe. Particulars: TR-FRET Binding Affinity, GST-Bcl-2, F-Bak peptide probe. In a few lines:
(§1)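 Displacement of a fluorescein-labelled Bak peptide from the GST-tagged protein was followed by time-resolved FRET with a terbium anti-GST donor after 3 h incubation at room temperature. Inhibition constants were calculated with Wang's equation.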

The next test has as its target GST-Bcl-XL (Homo sapiens, UniProt Q07817). Description: TR-FRET binding assay, GST-Bcl-XL with F-Bak peptide probe. Conditions: TR-FRET Binding Affinity, GST-Bcl-XL, F-Bak peptide probe. The procedure, abridged: as §1
The subject of a further test is FL5.12/Bcl-2 cells. As to the kind of experiment: FL5.12/Bcl-2 cell viability assay under IL-3 withdrawal (CellTitre Glo). Type of test: cell-based, murine. Conditions: Mus musculus, IL-3 withdrawn 48 hrs, then 24 hrs with compound. An excerpt:
FL5.12 is an IL-3 dependent prolymphocytic murine cell line that undergoes apoptosis upon IL-3 withdrawal as a result of the upregulation of pro-apoptotic Bcl-2 proteins such as Bim and Puma. Stable overexpression of anti-apoptotic Bcl-2 protein (FL5.12/Bcl-2) protects against apoptosis induced by IL-3 withdrawal by sequestration of Bim and Puma. […] The ability of compounds to kill FL5.12/Bcl-2 cells upon IL-3 withdrawal is a direct measure of the compounds' ability to inhibit anti-apoptotic Bcl-2 protein function.
Wild type FL5.12/Bcl-2 overexpressing stable transfectants were cultured in RPMI-1640 supplemented with 2 mM L-glutamine, 10% FBS, 1 mM sodium pyruvate, 2 mM HEPES, 1% penicillin/streptomycin (Invitrogen), 57 μM β-ME, and 10% WEHI-3B conditioned medium (source of IL-3) and maintained at 37° C. containing 5% CO2. 1×10^6 cells/ml were washed 1×PBS and resuspended in medium not supplemented with 10% WEHI-3B for 48 hrs prior to cytotoxicity assays. Cells were then treated for an additional 24 hrs in the presence of various concentrations of the indicated compounds. Cell viability was assessed by CellTitre Glo assay (Promega Corp.) according to the manufacturer's recommendations.

Chain of GST-Bcl-XL (Q07817 whole entry): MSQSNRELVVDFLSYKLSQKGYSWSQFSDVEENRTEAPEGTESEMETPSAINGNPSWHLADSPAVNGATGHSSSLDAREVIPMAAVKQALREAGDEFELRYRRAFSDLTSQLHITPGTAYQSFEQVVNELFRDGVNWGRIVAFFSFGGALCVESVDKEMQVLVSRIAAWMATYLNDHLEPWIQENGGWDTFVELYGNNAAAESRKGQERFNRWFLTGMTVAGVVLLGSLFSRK
Chain of GST-Bcl-2 (P10415 whole entry): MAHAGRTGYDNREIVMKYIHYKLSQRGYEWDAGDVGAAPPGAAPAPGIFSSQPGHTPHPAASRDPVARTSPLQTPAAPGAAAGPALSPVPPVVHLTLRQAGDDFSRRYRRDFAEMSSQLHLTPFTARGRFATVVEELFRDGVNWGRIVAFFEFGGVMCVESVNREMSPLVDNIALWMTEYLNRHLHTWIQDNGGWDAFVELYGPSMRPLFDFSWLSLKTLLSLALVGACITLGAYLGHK

On to `CN1CCN(Nc2ccc(S(=O)(=O)NC(=O)c3ccc(N4CCN(CC5=C(c6ccc(Cl)cc6)CC(C)(C)CC5)CC4)cc3Oc3cccc4[nH]ccc34)cc2[N+](=O)[O-])CC1` [Example 190, 4-(4-{[2-(4-chlorophenyl)-4,4-dimethylcyclohex-1-en-1-yl]methyl}piperazin-1-yl)-2-(1H-indol-4-yloxy)-N-({4-[(4-methylpiperazin-1-yl)amino]-3-nitrophenyl}sulfonyl)benzamide], for which the Ki on GST-Bcl-2 stood at 0.512 nM; at GST-Bcl-XL it was 97.1 nM. In addition, the EC50 in the test on FL5.12/Bcl-2 cells was 24.2 nM.
Consider `CC1(C)CCC(CN2CCN(c3ccc(C(=O)NS(=O)(=O)c4ccc(NC5CCN(CCO)CC5)c([N+](=O)[O-])c4)c(Oc4cccc5[nH]ccc45)c3)CC2)=C(c2ccc(Cl)cc2)C1` [Example 191, 4-(4-{[2-(4-chlorophenyl)-4,4-dimethylcyclohex-1-en-1-yl]methyl}piperazin-1-yl)-N-[(4-{[1-(2-hydroxyethyl)piperidin-4-yl]amino}-3-nitrophenyl)sulfonyl]-2-(1H-indol-4-yloxy)benzamide], for which the Ki on GST-Bcl-2 was 0.073 nM; on GST-Bcl-XL, 9.16 nM. Besides, in the test with FL5.12/Bcl-2 cells, the EC50 amounted to 11.7 nM.
On to `COCCN1CCC(Nc2ccc(S(=O)(=O)NC(=O)c3ccc(N4CCN(CC5=C(c6ccc(Cl)cc6)CC(C)(C)CC5)CC4)cc3Oc3cccc4[nH]ccc34)cc2[N+](=O)[O-])CC1` [Example 194, 4-(4-{[2-(4-chlorophenyl)-4,4-dimethylcyclohex-1-en-1-yl]methyl}piperazin-1-yl)-2-(1H-indol-4-yloxy)-N-[(4-{[1-(2-methoxyethyl)piperidin-4-yl]amino}-3-nitrophenyl)sulfonyl]benzamide], for which the Ki at GST-Bcl-2 amounted to 0.151 nM; at GST-Bcl-XL it was 32 nM. The EC50 in the test with FL5.12/Bcl-2 cells amounted to 27 nM.
Take `CC1(C)CCC(CN2CCN(c3ccc(C(=O)NS(=O)(=O)c4ccc(NC5CCN(CCCO)CC5)c([N+](=O)[O-])c4)c(Oc4cccc5[nH]ccc45)c3)CC2)=C(c2ccc(Cl)cc2)C1` [Example 195, 4-(4-{[2-(4-chlorophenyl)-4,4-dimethylcyclohex-1-en-1-yl]methyl}piperazin-1-yl)-N-[(4-{[1-(3-hydroxypropyl)piperidin-4-yl]amino}-3-nitrophenyl)sulfonyl]-2-(1H-indol-4-yloxy)benzamide]: the Ki on GST-Bcl-2 was found to be 0.039 nM; on GST-Bcl-XL, 6.71 nM. Moreover, the EC50 in the test with FL5.12/Bcl-2 cells was found to be 11.2 nM.
As to `CN(C)CCCc1cccc(-c2ccc(Cl)cc2)c1CN1CCN(c2ccc(C(=O)NS(=O)(=O)c3ccc(NCC4CCOCC4)c([N+](=O)[O-])c3)c(Oc3cccc4[nH]ccc34)c2)CC1` [Example 196, 4-[4-({4′-chloro-3-[3-(dimethylamino)propyl]-1,1′-biphenyl-2-yl}methyl)piperazin-1-yl]-2-(1H-indol-4-yloxy)-N-({3-nitro-4-[(tetrahydro-2H-pyran-4-ylmethyl)amino]phenyl}sulfonyl)benzamide], the Ki on GST-Bcl-2 was 0.032 nM; at GST-Bcl-XL it was more than 660 nM. For the same compound, the EC50 in the test on FL5.12/Bcl-2 cells is 12.4 nM.
In the same order, the values of `CC1(C)CCC(CN2CCN(c3ccc(C(=O)NS(=O)(=O)c4ccc(NC5CCN(CCCO)CC5)c([N+](=O)[O-])c4)c(Oc4ccc5[nH]ccc5c4)c3)CC2)=C(c2ccc(Cl)cc2)C1` [Example 197, 4-(4-{[2-(4-chlorophenyl)-4,4-dimethylcyclohex-1-en-1-yl]methyl}piperazin-1-yl)-N-[(4-{[1-(3-hydroxypropyl)piperidin-4-yl]amino}-3-nitrophenyl)sulfonyl]-2-(1H-indol-5-yloxy)benzamide] are 0.025 nM, 4.84 nM and 6.18 nM.
As for `CN(C)CCOc1cccc(-c2ccc(Cl)cc2)c1CN1CCN(c2ccc(C(=O)NS(=O)(=O)c3ccc(NC4CCN(C5CCOCC5)CC4)c([N+](=O)[O-])c3)c(Oc3cccc4[nH]ccc34)c2)CC1` [Example 199, 4-[4-({4′-chloro-3-[2-(dimethylamino)ethoxy]-1,1′-biphenyl-2-yl}methyl)piperazin-1-yl]-2-(1H-indol-4-yloxy)-N-({3-nitro-4-[(1-tetrahydro-2H-pyran-4-ylpiperidin-4-yl)amino]phenyl}sulfonyl)benzamide], the Ki on GST-Bcl-2 came to 0.014 nM; at GST-Bcl-XL, 5.23 nM. For the same compound, the EC50 in the test on FL5.12/Bcl-2 cells came out at 28.5 nM.
`CCN(CC)C1CCC(Nc2ccc(S(=O)(=O)NC(=O)c3ccc(N4CCN(CC5=C(c6ccc(Cl)cc6)CC(C)(C)CC5)CC4)cc3Oc3ccc4[nH]ccc4c3)cc2[N+](=O)[O-])CC1` (stereo not drawn) [Example 201, 4-(4-{[2-(4-chlorophenyl)-4,4-dimethylcyclohex-1-en-1-yl]methyl}piperazin-1-yl)-N-[(4-{[4-(diethylamino)cyclohexyl]amino}-3-nitrophenyl)sulfonyl]-2-(1H-indol-5-yloxy)benzamide]: the inhibition constant Ki at GST-Bcl-2 was found to be 0.125 nM; on GST-Bcl-XL, 24.6 nM. Besides, the EC50 in the test with FL5.12/Bcl-2 cells amounted to 17.4 nM.
As for `CN(C)C1CCC(Nc2ccc(S(=O)(=O)NC(=O)c3ccc(N4CCN(CC5=C(c6ccc(Cl)cc6)CC(C)(C)CC5)CC4)cc3Oc3cccc4[nH]ccc34)cc2[N+](=O)[O-])CC1` (stereo not drawn) [Example 202, 4-(4-{[2-(4-chlorophenyl)-4,4-dimethylcyclohex-1-en-1-yl]methyl}piperazin-1-yl)-N-[(4-{[4-(dimethylamino)cyclohexyl]amino}-3-nitrophenyl)sulfonyl]-2-(1H-indol-4-yloxy)benzamide], the figures for the Ki on GST-Bcl-2 and on GST-Bcl-XL were 0.052 nM and 5.07 nM, respectively. Also, the EC50 with FL5.12/Bcl-2 cells came to 13.8 nM.
In the same order, the values of `CCN(CC)C1CCC(Nc2ccc(S(=O)(=O)NC(=O)c3ccc(N4CCN(CC5=C(c6ccc(Cl)cc6)CC(C)(C)CC5)CC4)cc3Oc3cccc4[nH]ccc34)cc2[N+](=O)[O-])CC1` (stereo not drawn) [Example 203, 4-(4-{[2-(4-chlorophenyl)-4,4-dimethylcyclohex-1-en-1-yl]methyl}piperazin-1-yl)-N-[(4-{[4-(diethylamino)cyclohexyl]amino}-3-nitrophenyl)sulfonyl]-2-(1H-indol-4-yloxy)benzamide] are 0.031 nM, 4.3 nM and 22.3 nM.
For the compound `CC1(C)CCC(CN2CCN(c3ccc(C(=O)NS(=O)(=O)c4ccc(N[C@H]5CC[C@H](N6CCOCC6)CC5)c([N+](=O)[O-])c4)c(Oc4cccc5[nH]ccc45)c3)CC2)=C(c2ccc(Cl)cc2)C1` [Example 204, Trans-4-(4-{[2-(4-chlorophenyl)-4,4-dimethylcyclohex-1-en-1-yl]methyl}piperazin-1-yl)-2-(1H-indol-4-yloxy)-N-({4-[(4-morpholin-4-ylcyclohexyl)amino]-3-nitrophenyl}sulfonyl)benzamide], the values for the Ki on GST-Bcl-2 and at GST-Bcl-XL were 0.145 nM and 42.3 nM, respectively. The EC50 in the test with FL5.12/Bcl-2 cells was 27.4 nM.
On to `CN(C)CCOc1cccc(-c2ccc(Cl)cc2)c1CN1CCN(c2ccc(C(=O)NS(=O)(=O)c3ccc(NC4CCN(C)CC4)c([N+](=O)[O-])c3)c(Oc3cccc4[nH]ccc34)c2)CC1` [Example 205, 4-[4-({4′-chloro-3-[2-(dimethylamino)ethoxy]-1,1′-biphenyl-2-yl}methyl)piperazin-1-yl]-2-(1H-indol-4-yloxy)-N-({4-[(1-methylpiperidin-4-yl)amino]-3-nitrophenyl}sulfonyl)benzamide], for which the Ki at GST-Bcl-2 is 0.005 nM; on GST-Bcl-XL, 3.57 nM. Further, the EC50 in the test with FL5.12/Bcl-2 cells was 37.5 nM.
With `CC(c1ccccc1-c1ccc(Cl)cc1)N1CCN(c2ccc(C(=O)NS(=O)(=O)c3ccc(NC4CCN(C)CC4)c([N+](=O)[O-])c3)c(Oc3cccc4[nH]ccc34)c2)CC1` (stereo not drawn) [Example 206, 4-{4-[1-(4′-chloro-1,1′-biphenyl-2-yl)ethyl]piperazin-1-yl}-2-(1H-indol-4-yloxy)-N-({4-[(1-methylpiperidin-4-yl)amino]-3-nitrophenyl}sulfonyl)benzamide], the inhibitory constant (Ki) at GST-Bcl-2 is 0.083 nM; at GST-Bcl-XL, more than 660 nM. Further, the EC50 in the test with FL5.12/Bcl-2 cells was determined as 5.01 nM.
In the same order, the values of `CN(C)C1(CNc2ccc(S(=O)(=O)NC(=O)c3ccc(N4CCN(CC5=C(c6ccc(Cl)cc6)CC(C)(C)CC5)CC4)cc3Oc3ccc4[nH]ccc4c3)cc2[N+](=O)[O-])CCOCC1` [Example 207, 4-(4-{[2-(4-chlorophenyl)-4,4-dimethylcyclohex-1-en-1-yl]methyl}piperazin-1-yl)-N-{[4-({[4-(dimethylamino)tetrahydro-2H-pyran-4-yl]methyl}amino)-3-nitrophenyl]sulfonyl}-2-(1H-indol-5-yloxy)benzamide] are 0.218 nM, more than 660 nM and 120 nM.
Regarding `CC1(C)CCC(CN2CCN(c3ccc(C(=O)NS(=O)(=O)c4ccc(NC5CCCCC5N)c([N+](=O)[O-])c4)c(Oc4ccc5[nH]ccc5c4)c3)CC2)=C(c2ccc(Cl)cc2)C1` (stereo not drawn) [Example 208, N-({4-[(2-aminocyclohexyl)amino]-3-nitrophenyl}sulfonyl)-4-(4-{[2-(4-chlorophenyl)-4,4-dimethylcyclohex-1-en-1-yl]methyl}piperazin-1-yl)-2-(1H-indol-5-yloxy)benzamide], the Ki at GST-Bcl-2 was 0.589 nM; at GST-Bcl-XL it was more than 660 nM. The EC50 in the test on FL5.12/Bcl-2 cells came to 264 nM.
